Paper PMC3720905, “A Conserved Aspartic Acid Is Important for Agonist (VUAA1) and Odorant/Tuning Receptor-Dependent Activation of the Insect Odorant Co-Receptor (Orco)” (PLoS ONE, 2013)

Experiments:
[1] = molecular target: T1, DmelOrco/DmelOR22a complex (Drosophila melanogaster, UniProt P81909); experiment: Ca2+ influx (Fluo-4 AM fluorescence); format: cell-based; conditions: heteromeric channel, odorant agonist; data not shown
T1 construct: gene Or22a; heteromeric channel; Or22a in pCI transiently transfected into Flp-In 293 T-REX cells stably expressing N-myc DmelOrco; stoichiometry unknown; with Odorant receptor coreceptor
T1 sequence (P81909 1-397): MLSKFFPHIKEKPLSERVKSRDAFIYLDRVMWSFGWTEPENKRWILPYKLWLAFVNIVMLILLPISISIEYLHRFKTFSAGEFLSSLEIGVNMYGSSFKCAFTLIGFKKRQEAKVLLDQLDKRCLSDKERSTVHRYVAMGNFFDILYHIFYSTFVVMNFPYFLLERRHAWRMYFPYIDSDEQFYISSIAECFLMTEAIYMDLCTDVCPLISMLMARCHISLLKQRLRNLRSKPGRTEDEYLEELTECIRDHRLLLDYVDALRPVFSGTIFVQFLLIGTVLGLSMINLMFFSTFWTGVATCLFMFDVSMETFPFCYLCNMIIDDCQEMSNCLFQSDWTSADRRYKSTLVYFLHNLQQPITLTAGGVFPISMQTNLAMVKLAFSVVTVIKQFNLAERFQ
T1 sequence (Q9VNB5 1-486 partner): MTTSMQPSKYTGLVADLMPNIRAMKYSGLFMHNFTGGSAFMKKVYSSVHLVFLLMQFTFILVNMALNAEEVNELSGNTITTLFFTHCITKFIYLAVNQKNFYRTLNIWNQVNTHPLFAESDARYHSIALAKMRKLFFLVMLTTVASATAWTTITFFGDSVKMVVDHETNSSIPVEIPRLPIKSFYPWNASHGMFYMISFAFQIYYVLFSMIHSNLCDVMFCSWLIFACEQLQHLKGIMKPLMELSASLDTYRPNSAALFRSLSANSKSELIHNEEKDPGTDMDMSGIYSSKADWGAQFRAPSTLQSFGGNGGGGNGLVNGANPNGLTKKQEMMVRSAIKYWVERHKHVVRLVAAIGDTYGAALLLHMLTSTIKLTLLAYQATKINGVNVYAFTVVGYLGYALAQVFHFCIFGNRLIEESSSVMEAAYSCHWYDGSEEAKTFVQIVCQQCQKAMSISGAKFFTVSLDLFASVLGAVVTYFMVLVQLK

DmelOrco/AgOR65 complex [2] = system: T2, DmelOrco/AgOR65 complex; experiment: Ca2+ influx (Fluo-4 AM fluorescence); format: cell-based, Anopheles gambiae; conditions: log10 of molar EC50 (unit not given); heteromeric channel, odorant agonist
T2 construct: gene Or65; mixed-species heteromeric channel; AgOR65 in pCI transfected into Flp-In 293 T-REX cells stably expressing N-myc DmelOrco; with Odorant receptor coreceptor (Drosophila melanogaster)

DmelOrco/AgOR65 complex [3] = system: T2, DmelOrco/AgOR65 complex; experiment: Ca2+ influx (Fluo-4 AM fluorescence); format: cell-based, Anopheles gambiae; conditions: log10 of molar EC50 (unit not given); heteromeric channel, odorant agonist; remark: listed apart in the source
DmelOrco/AgOR65 complex [4] = system: T2, DmelOrco/AgOR65 complex; experiment: Ca2+ influx (Fluo-4 AM fluorescence); format: cell-based, Anopheles gambiae; conditions: log10 of molar EC50 (unit not given); heteromeric channel, odorant agonist; remark: listed apart in the source
[5] = molecular target: T1, DmelOrco/DmelOR22a complex; experiment: Ca2+ influx (Fluo-4 AM fluorescence); format: cell-based
[6] = molecular target: T3, DmelOrco (N-myc DmelOrco) (Drosophila melanogaster, UniProt Q9VNB5); experiment: Ca2+ influx (Fluo-4 fluorescence); format: cell-based
T3 construct: gene Orco; homomeric channel; ~50 kDa band
T3 sequence (Q9VNB5 1-486): T1 sequence (Q9VNB5 1-486 partner)

[7] = molecular target: T4, DmelOrco (N-myc DmelOrco) (Drosophila melanogaster, UniProt Q9VNB5, D357N); experiment: Ca2+ influx (Fluo-4 fluorescence); format: cell-based
T4 construct: gene Orco; homomeric channel; ~50 kDa band
T4 sequence (Q9VNB5 1-486 D357N): T1 sequence (Q9VNB5 1-486 partner)

[8] = molecular target: T5, DmelOrco (N-myc DmelOrco) (Drosophila melanogaster, UniProt Q9VNB5, D466N); experiment: Ca2+ influx (Fluo-4 fluorescence); format: cell-based
T5 construct: gene Orco; homomeric channel; ~50 kDa band
T5 sequence (Q9VNB5 1-486 D466N): T1 sequence (Q9VNB5 1-486 partner)

[9] = molecular target: T6, DmelOrco (N-myc DmelOrco) (Drosophila melanogaster, UniProt Q9VNB5, D466E); experiment: Ca2+ influx (Fluo-4 fluorescence); format: cell-based
T6 construct: gene Orco; homomeric channel; ~50 kDa band
T6 sequence (Q9VNB5 1-486 D466E): T1 sequence (Q9VNB5 1-486 partner)

CCCCCC(=O)OCC [ethyl hexanoate]
Ca2+ influx (Fluo-4 AM fluorescence) [1]: Essentially identical responses were observed to ethyl hexanoate

C=CCc1ccc(O)c(OC)c1 [eugenol]
LogEC50 (DmelOrco/AgOR65 complex [2]): -6.54±0.05 | LogEC50 (DmelOrco/AgOR65 complex [3]): -6.34±0.04 | LogEC50 (DmelOrco/AgOR65 complex [4]): -6.75±0.03

CCCCCC(=O)OC [methyl hexanoate]
EC50 [5]: 0.417 µM

CCc1ccc(NC(=O)CSc2nnc(-c3cccnc3)n2CC)cc1 [VUAA1, N-(4-ethylphenyl)-2-((4-ethyl-5-(3-pyridinyl)-4H-1,2,4-triazol-3-yl)thio)acetamide]
EC50 [6]: 46.8 µM | EC50 [7]: 38 µM | EC50 [8]: 85.1 µM | EC50 [9]: 21.4 µM
